Test system: Genes belonging to other category
Test: DNA chip mRNA expression in yeast, genes belonging to other category (Table 9)
Type: cell-based, Saccharomyces cerevisiae S288C
Summary of the method: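 Untreated cultures served as reference for log-phase S288C yeast given a growth-inhibiting, non-lethal toxicant dose for 2 h at 25° C. in YPD. Gene expression was measured on a whole-genome DNA chip from Cy3/Cy5-labeled cDNA.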

Cl[C@H]1[C@H](Cl)[C@@H](Cl)[C@@H](Cl)[C@H](Cl)[C@H]1Cl [(7), γ-hexachlorocyclohexane]
The level of expressed mRNA in the presence of chemical substance/The level of expressed mRNA in the absence of chemical substance (yeast gene YKL013C): 1.8 | The level of expressed mRNA in the presence of chemical substance/The level of expressed mRNA in the absence of chemical substance (yeast gene YKL039W): 2.0 | The level of expressed mRNA in the presence of chemical substance/The level of expressed mRNA in the absence of chemical substance (yeast gene YKL041W): 1.0 | The level of expressed mRNA in the presence of chemical substance/The level of expressed mRNA in the absence of chemical substance (yeast gene YKL096W): 0.2 | The level of expressed mRNA in the presence of chemical substance/The level of expressed mRNA in the absence of chemical substance (yeast gene YKL139W): 2.6 | The level of expressed mRNA in the presence of chemical substance/The level of expressed mRNA in the absence of chemical substance (yeast gene YKL165C): 2.1 | The level of expressed mRNA in the presence of chemical substance/The level of expressed mRNA in the absence of chemical substance (yeast gene YKL193C): 2.1 | The level of expressed mRNA in the presence of chemical substance/The level of expressed mRNA in the absence of chemical substance (yeast gene YLR120C): 1.5 | The level of expressed mRNA in the presence of chemical substance/The level of expressed mRNA in the absence of chemical substance (yeast gene YLR136C): 3.9 | The level of expressed mRNA in the presence of chemical substance/The level of expressed mRNA in the absence of chemical substance (yeast gene YLR178C): 3.3 | The level of expressed mRNA in the presence of chemical substance/The level of expressed mRNA in the absence of chemical substance (yeast gene YLR250W): 1.9 | The level of expressed mRNA in the presence of chemical substance/The level of expressed mRNA in the absence of chemical substance (yeast gene YLR327C): 5.7 | The level of expressed mRNA in the presence of chemical substance/The level of expressed mRNA in the absence of chemical substance (yeast gene YLR356W): 1.1 | The level of expressed mRNA in the presence of chemical substance/The level of expressed mRNA in the absence of chemical substance (yeast gene YLR362W): 1.9 | The level of expressed mRNA in the presence of chemical substance/The level of expressed mRNA in the absence of chemical substance (yeast gene YLR391W): 0.7 | The level of expressed mRNA in the presence of chemical substance/The level of expressed mRNA in the absence of chemical substance (yeast gene YLR429W): 1.3 | The level of expressed mRNA in the presence of chemical substance/The level of expressed mRNA in the absence of chemical substance (yeast gene YMR004W): 1.2 | The level of expressed mRNA in the presence of chemical substance/The level of expressed mRNA in the absence of chemical substance (yeast gene YMR094W): 0.8 | The level of expressed mRNA in the presence of chemical substance/The level of expressed mRNA in the absence of chemical substance (yeast gene YMR104C): 1.5 | The level of expressed mRNA in the presence of chemical substance/The level of expressed mRNA in the absence of chemical substance (yeast gene YMR226C): 1.8 | The level of expressed mRNA in the presence of chemical substance/The level of expressed mRNA in the absence of chemical substance (yeast gene YMR275C): 0.8 | The level of expressed mRNA in the presence of chemical substance/The level of expressed mRNA in the absence of chemical substance (yeast gene YMR276W): 1.1 | The level of expressed mRNA in the presence of chemical substance/The level of expressed mRNA in the absence of chemical substance (yeast gene YMR314W): 1.1 | The level of expressed mRNA in the presence of chemical substance/The level of expressed mRNA in the absence of chemical substance (yeast gene YNL006W): 1.6 | The level of expressed mRNA in the presence of chemical substance/The level of expressed mRNA in the absence of chemical substance (yeast gene YNL007C): 1.2 | The level of expressed mRNA in the presence of chemical substance/The level of expressed mRNA in the absence of chemical substance (yeast gene YNL093W): 1.4 | The level of expressed mRNA in the presence of chemical substance/The level of expressed mRNA in the absence of chemical substance (yeast gene YNL333W): 2.9 | The level of expressed mRNA in the presence of chemical substance/The level of expressed mRNA in the absence of chemical substance (yeast gene YNR010W): 1.5 | The level of expressed mRNA in the presence of chemical substance/The level of expressed mRNA in the absence of chemical substance (yeast gene YNR069C): 1.4 | The level of expressed mRNA in the presence of chemical substance/The level of expressed mRNA in the absence of chemical substance (yeast gene YOL013C): 1.7 | The level of expressed mRNA in the presence of chemical substance/The level of expressed mRNA in the absence of chemical substance (yeast gene YOL164W): 2.2 | The level of expressed mRNA in the presence of chemical substance/The level of expressed mRNA in the absence of chemical substance (yeast gene YOR036W): 1.8 | The level of expressed mRNA in the presence of chemical substance/The level of expressed mRNA in the absence of chemical substance (yeast gene YOR117W): 3.3 | The level of expressed mRNA in the presence of chemical substance/The level of expressed mRNA in the absence of chemical substance (yeast gene YOR124C): 1.1 | The level of expressed mRNA in the presence of chemical substance/The level of expressed mRNA in the absence of chemical substance (yeast gene YOR132W): 1.4 | The level of expressed mRNA in the presence of chemical substance/The level of expressed mRNA in the absence of chemical substance (yeast gene YOR157C): 1.2 | The level of expressed mRNA in the presence of chemical substance/The level of expressed mRNA in the absence of chemical substance (yeast gene YOR181W): 0.7 | The level of expressed mRNA in the presence of chemical substance/The level of expressed mRNA in the absence of chemical substance (yeast gene YOR185C): 1.3 | The level of expressed mRNA in the presence of chemical substance/The level of expressed mRNA in the absence of chemical substance (yeast gene YOR198C): 1.6 | The level of expressed mRNA in the presence of chemical substance/The level of expressed mRNA in the absence of chemical substance (yeast gene YOR259C): 1.3 | The level of expressed mRNA in the presence of chemical substance/The level of expressed mRNA in the absence of chemical substance (yeast gene YOR261C): 1.9 | The level of expressed mRNA in the presence of chemical substance/The level of expressed mRNA in the absence of chemical substance (yeast gene YOR288C): 2.0 | The level of expressed mRNA in the presence of chemical substance/The level of expressed mRNA in the absence of chemical substance (yeast gene YOR355W): 1.1 | The level of expressed mRNA in the presence of chemical substance/The level of expressed mRNA in the absence of chemical substance (yeast gene YOR383C): 8.0 | The level of expressed mRNA in the presence of chemical substance/The level of expressed mRNA in the absence of chemical substance (yeast gene YPL089C): 0.9 | The level of expressed mRNA in the presence of chemical substance/The level of expressed mRNA in the absence of chemical substance (yeast gene YPL109C): 1.8 | The level of expressed mRNA in the presence of chemical substance/The level of expressed mRNA in the absence of chemical substance (yeast gene YPL149W): 1.2 | The level of expressed mRNA in the presence of chemical substance/The level of expressed mRNA in the absence of chemical substance (yeast gene YPL154C): 1.5 | The level of expressed mRNA in the presence of chemical substance/The level of expressed mRNA in the absence of chemical substance (yeast gene YPR103W): 1.6 | The level of expressed mRNA in the presence of chemical substance/The level of expressed mRNA in the absence of chemical substance (yeast gene YPR108W): 1.6

From patent US8192962B2, “Processes for detecting toxic substances” (Daikin Industries, Ltd., priority 2001, dated 2012)
